Experimental findings from PMC10119930, “Dual Molecules Targeting 5-HT6 and GABA-A Receptors as a New Approach to Combat Depression Associated with Neuroinflammation” (ACS Chemical Neuroscience, 2023) are described below.

The target of one assay is 5-HT6 receptor (Homo sapiens, UniProt P50406). Briefly: Radioligand binding assay for 5-HT6 receptor ([3H]-LSD displacement). More on the design: expressed in transfected cells; host or cells: HEK-293 (cryopreserved membranes). Conditions: competitive replacement of [3H]-LSD; ±S.E.M.; read-out: 5-HT6R Ki. Here is the method: To determine the affinity for 5-HT6, the cryopreserved membranes from HEK-293 cells stably transfected with the human recombinant 5-HT6 receptor were used.[40] Preparation of the tested compounds included preparation of stock solutions in DMSO (1 mM) and subsequent serial dilutions (10^–10–10^–5 M) of tested compounds in the appropriate buffer (50 mM Tris buffer, pH 7.4, 10 mM MgCl2, 0.5 mM ethylenediaminetetraacetic acid). The serial dilutions were acquired directly on a 96-well microplate. The reaction mix included 50 μL of appropriate concentration of tested molecule, 50 μL of [^3H]LSD 2.5/2.0 nM, and 150 μL of diluted membranes. The microplate containing the reaction mix was protected with a sealing tape and incubated for 60 min at 37 °C. Quenching of the reaction mixtire included: rapid filtration through UniFilter 96 GF/B filter microplate and rapid washes using 200 μL 50 mM assay buffer and vacuum manifold and 96-well pipettor. The collected microplates were dried overnight at 37 °C. The UniFilter bottoms were sealed, and then 30 μL of Betaplate Scint liquid scintillator (PerkinElmer) was added to each well. […] The obtained data were fit to a one-site curve-fitting equation using Prism 5 software (GraphPad Software), and the Ki values were determined using the Cheng–Prusoff equation. Radioligand binding was performed in duplicates.
Chain of 5-HT6 receptor (P50406 whole entry): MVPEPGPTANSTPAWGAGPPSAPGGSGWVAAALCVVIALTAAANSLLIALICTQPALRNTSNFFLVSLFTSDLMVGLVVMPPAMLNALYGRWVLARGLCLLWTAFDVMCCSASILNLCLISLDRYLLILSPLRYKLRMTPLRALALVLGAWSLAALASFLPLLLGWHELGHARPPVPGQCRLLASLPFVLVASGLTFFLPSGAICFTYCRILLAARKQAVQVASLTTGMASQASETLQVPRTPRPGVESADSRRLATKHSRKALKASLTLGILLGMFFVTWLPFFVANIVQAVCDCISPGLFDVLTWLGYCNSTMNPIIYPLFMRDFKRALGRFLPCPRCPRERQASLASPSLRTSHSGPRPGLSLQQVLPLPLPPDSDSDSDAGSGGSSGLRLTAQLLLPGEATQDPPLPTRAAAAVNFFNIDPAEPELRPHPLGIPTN

The subject of a further assay is BV-2 microglia cells. Briefly: Anti-inflammatory assessment in LPS-stimulated BV-2 cells (NO, ROS, IL-6, TNF-α). Conditions: 10 μM pretreatment 1 h, then LPS 18 h. Type of assay: cell-based, mouse. The protocol: Mouse microglial (BV-2) cell line was a generous gift from Prof. Bożena Kamińska-Kaczmarek of the Nencki Institute of Experimental Biology, Polish Academy of Sciences, Warsaw, Poland. The cell culture medium: Dulbecco’s modified with high glucose (DMEM, Glutamx ThermoFisher) and supplemented with 10% inactivated fetal bovine serum heat (ThermoFisher), 100 IU/mL penicillin (Merck) and 100 μg/mL streptomycin (Merck). Cell culture conditions: culture flasks (area 175 cm^2, Nunc), temperature of 37 °C, 5% CO2. For the assessment of the effect of tested compounds on the quantities of reactive oxygen species, nitric oxide, and inflammatory markers, the BV-2 cells were positioned in a 96-well culture plate (5 × 10^4 cells per well, Falcon). In the case of cell membrane damage assay, a 96-well culture plate (2 × 10^4 cells per well, Falcon) was used. The cells were cultured in the incubator (37 °C, 5% CO2) for 24 h prior to the assay. The tested compounds were dissolved in DMSO to achieve the concentration of 10^–2 M. Serial dilutions of the compounds were prepared in PBS and added directly to the medium containing adherent cells. The resulting mixtures were examined for any evidence of precipitation or opalescence before the assay. BV-2 cells were incubated with selected molecules (6, 16 at a concentration of 10 μM) during 1 h. Subsequently, lipopolysaccharide (100 ng/mL) was added and the resulting mixture was incubated for 18 h. Next, the culture supernatant was collected to measure the levels of nitric oxide (NO), reactive oxygen species (ROS), IL-6, and TNF-α according to the procedures described in detail below. All experiments were performed in duplicates, in three independent experiments.
The quantities of NO produced by the cells were determined using DAN reagent (2,3-diaminonaphthalene), rendering the method protocol described by Nussler et al.[48] After incubating at room temperature for 15 min, the fluorescence intensity (EX 360; EM 440 nm) was measured using a microplate reader POLARstar Omega from BMG Labtech. The amounts of NO were then calculated as a percentage of the control (which represents the maximal response of LPS). ROS measurement. The fluorescent dye 2,7-dichlorodihydrofluorescein diacetate (DCFH-DA)[49] was utilized to determine the quantity of ROS released by BV-2 cells. After a 30 min incubation period at 37 °C with 10 μM DCFH-DA, the fluorescence intensity (EX 490; EM 520 nm) was examined using a microplate reader POLARstar Omega from BMG Labtech. The amounts of ROS were then expressed as a percentage of the control (which represents the maximal response of LPS). The IL-6 and TNF-α levels detected in the culture supernatants were quantified using LANCE Ultra TR-FRET detection kit (PerkinElmer), rendering the manufacturer’s procedure. The detection of IL-6 and TNF-α was performed independently in a 384-well plate according to the instructions provided. To each well of the plate, 15 μL of sample was added followed by the addition of 5 μL of premixed antibody solution. After incubating IL-6 for 1 h and TNF-α for 3 h in the absence of light, at 22 °C, the plates were transferred to an EnVision plate reader (PerkinElmer). Measurements were conducted at 320 nm wavelength for excitation, at 615 nm for donor emission, and at 660 nm for acceptor emission. The final data were determined as the ratio of the 660 nm signal to the 615 nm signal. The results represent the levels of each cytokine determined as a percentage of control (considered as maximal cell response to LPS). The GraphPad program was used to conduct statistical analysis, with all outcomes presented as mean values with standard deviation (SD). Differences between groups were assessed using one-way ANOVA, followed by post hoc analysis (Dunnett’s multiple comparison tests). Results were considered statistically significant if the p-value was less than 0.05. […]

In assay [1] the test system is human α1β2γ2-GABA-A receptors. Briefly: Electrophysiological studies, automated patch clamp (QPatch16X), HEK293 cells. Conditions: agonist mode, compound at 10 μM; current amplitude normalized to 10 μM GABA response; ±S.E.M. Type of assay: cell-based. Background: The patch-clamp technique gives a direct electrical read-out from membranes.

Several values for one entry are separate records, joined by “and”; a condition that tells them apart may be missing. Equal entries are not always repeated.

For the molecule `Cc1c(OCc2ccccc2)cccc1N1CCN(CCOC(=O)CCCN)CC1.Cl.Cl` [Compound 16, 1-(2-((4-Ammoniobutanoyl)oxy)ethyl)-4-(3-(benzyloxy)-2-methylphenyl)piperazin-1-ium Dichloride], the inhibition constant (Ki) – broadly, the equilibrium dissociation constant of an inhibitor or competing ligand from its target – at 5-HT6 receptor stood at 16 ± 0.4 nM. Also, in the assay on BV-2 microglia cells, the “LPS-induced IL-6 production” value is “significantly decreased”, the “LPS-induced NO production” value is “significantly decreased”, the “LPS-induced ROS production” value is listed as “significantly decreased” and the “LPS-induced TNF-α production” value is given as “significantly decreased”. Also, in assay [1], the “[%] of 10 μM GABA activity” value was 24.7% and 24.7 ± 1.5%.
